From ChEMBL document CHEMBL1641539 (Bioorg Med Chem Lett, 2011)

Legend:
[1] = target: High affinity nerve growth factor receptor (Homo sapiens) (UniProt P04629); experiment: Inhibition of human TrkA at 10 uM after 60 mins by TR-FRET assay; settings: values are per cent of control
[2] = target: ALK tyrosine kinase receptor (Homo sapiens) (UniProt Q9UM73); experiment: Inhibition of human ALK at 10 uM after 60 mins by TR-FRET assay; values are per cent of control
[3] = target: Tyrosine-protein kinase ABL2 (Homo sapiens) (UniProt P42684); experiment: Inhibition of human Arg at 10 uM after 60 mins by TR-FRET assay; values are per cent of control
[4] = target: Casein kinase II (Homo sapiens) (UniProt P67870+P68400+P19784); experiment: Inhibition of human CK2 at 10 uM after 60 mins by TR-FRET assay; values are per cent of control
[5] = target: Receptor-type tyrosine-protein kinase FLT3 (Homo sapiens) (UniProt P36888); experiment: Inhibition of human Flt3 at 10 uM after 60 mins by TR-FRET assay; values are per cent of control
[6] = target: Myosin light chain kinase, smooth muscle (Homo sapiens) (UniProt Q15746); experiment: Inhibition of human MLCK at 10 uM after 60 mins by TR-FRET assay; values are per cent of control
[7] = target: Mitogen-activated protein kinase kinase kinase 7 (Homo sapiens) (UniProt O43318); experiment: Inhibition of human TAK1 at 10 uM after 60 mins by TR-FRET assay; values are per cent of control
[8] = target: BDNF/NT-3 growth factors receptor (Homo sapiens) (UniProt Q16620); experiment: Inhibition of human TrkB at 10 uM after 60 mins by TR-FRET assay; values are per cent of control
[9] = target: Serine/threonine-protein kinase WNK2 (Homo sapiens) (UniProt Q9Y3S1); experiment: Inhibition of human WNK2 at 10 uM after 60 mins by TR-FRET assay; values are per cent of control
[10] = target: Activated CDC42 kinase 1 (Homo sapiens) (UniProt Q07912); experiment: Inhibition of human ACK1 at 10 uM after 60 mins by TR-FRET assay; values are per cent of control
[11] = target: Mitogen-activated protein kinase kinase kinase 5 (Homo sapiens) (UniProt Q99683); experiment: Inhibition of human ASK1 at 10 uM after 60 mins by TR-FRET assay; values are per cent of control
[12] = target: Discoidin domain-containing receptor 2 (Homo sapiens) (UniProt Q16832); experiment: Inhibition of human DDR2 at 10 uM after 60 mins by TR-FRET assay; values are per cent of control
[13] = target: Myotonin-protein kinase (Homo sapiens) (UniProt Q09013); experiment: Inhibition of human DMPK at 10 uM after 60 mins by TR-FRET assay; values are per cent of control
[14] = target: Serine/threonine-protein kinase PAK 2 (Homo sapiens) (UniProt Q13177); experiment: Inhibition of human PAK2 at 10 uM after 60 mins by TR-FRET assay; values are per cent of control
[15] = target: Serine/threonine-protein kinase PLK1 (Homo sapiens) (UniProt P53350); experiment: Inhibition of human Plk1 at 10 uM after 60 mins by TR-FRET assay; values are per cent of control
[16] = target: Ephrin type-A receptor 2 (Homo sapiens) (UniProt P29317); experiment: Inhibition of human EphA2 at 10 uM after 60 mins by TR-FRET assay; values are per cent of control
[17] = target: Homeodomain-interacting protein kinase 3 (Homo sapiens) (UniProt Q9H422); experiment: Inhibition of human HIPK3 at 10 uM after 60 mins by TR-FRET assay; values are per cent of control
[18] = target: Mitogen-activated protein kinase 1 (Mus musculus) (UniProt P63085); experiment: Inhibition of mouse MAPK2 at 10 uM after 60 mins by TR-FRET assay; values are per cent of control
[19] = target: Serine/threonine-protein kinase BRSK1 (Homo sapiens) (UniProt Q8TDC3); experiment: Inhibition of human BrSK1 at 10 uM after 60 mins by TR-FRET assay; values are per cent of control
[20] = target: T1, Aurora kinase A (Homo sapiens) (UniProt O14965); experiment: Inhibition of human Aurora-A at 10 uM after 60 mins by TR-FRET assay; values are per cent of control
T1 sequence (whole entry): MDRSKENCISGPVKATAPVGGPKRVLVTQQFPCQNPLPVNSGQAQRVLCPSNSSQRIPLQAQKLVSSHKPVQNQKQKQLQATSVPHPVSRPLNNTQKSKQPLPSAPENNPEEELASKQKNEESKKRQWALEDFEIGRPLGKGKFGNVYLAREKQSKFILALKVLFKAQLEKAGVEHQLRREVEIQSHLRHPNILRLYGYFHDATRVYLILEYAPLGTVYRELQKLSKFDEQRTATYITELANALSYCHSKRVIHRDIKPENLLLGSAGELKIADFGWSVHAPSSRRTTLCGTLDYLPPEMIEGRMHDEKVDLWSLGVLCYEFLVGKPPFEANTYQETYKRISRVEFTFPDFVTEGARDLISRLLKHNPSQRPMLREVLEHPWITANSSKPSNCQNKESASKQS

[21] = target: Protein kinase C beta type (Homo sapiens) (UniProt P05771); experiment: Inhibition of human PKCbeta1 at 10 uM after 60 mins by TR-FRET assay; values are per cent of control
[22] = target: Phosphorylase b kinase gamma catalytic chain, liver/testis isoform (Homo sapiens) (UniProt P15735); experiment: Inhibition of human PhKgamma2 at 10 uM after 60 mins by TR-FRET assay; values are per cent of control
[23] = test system: Fibroblast growth factor receptor 2 (Homo sapiens), P21802 [N549H]; experiment: Inhibition of human FGFR2 N549H mutant at 10 uM after 60 mins by TR-FRET assay; values are per cent of control
[24] = test system: Mast/stem cell growth factor receptor Kit (Homo sapiens), P10721 [V654A]; experiment: Inhibition of human c-Kit V654A mutant at 10 uM after 60 mins by TR-FRET assay; values are per cent of control

Sequence of Phosphorylase b kinase gamma catalytic chain, liver/testis isoform (Homo sapiens) (P15735 whole entry, canonical isoform): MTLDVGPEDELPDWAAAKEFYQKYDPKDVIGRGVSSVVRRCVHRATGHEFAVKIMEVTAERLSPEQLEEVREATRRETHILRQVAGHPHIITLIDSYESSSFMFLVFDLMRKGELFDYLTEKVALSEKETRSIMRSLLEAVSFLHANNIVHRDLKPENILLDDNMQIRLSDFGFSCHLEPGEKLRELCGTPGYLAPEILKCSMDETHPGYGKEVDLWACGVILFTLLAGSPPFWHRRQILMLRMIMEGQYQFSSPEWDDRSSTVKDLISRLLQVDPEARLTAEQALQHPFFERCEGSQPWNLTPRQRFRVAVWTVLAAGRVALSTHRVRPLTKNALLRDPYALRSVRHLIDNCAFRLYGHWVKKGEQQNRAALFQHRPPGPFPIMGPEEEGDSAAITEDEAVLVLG
Sequence of Serine/threonine-protein kinase WNK2 (Homo sapiens) (Q9Y3S1 whole entry): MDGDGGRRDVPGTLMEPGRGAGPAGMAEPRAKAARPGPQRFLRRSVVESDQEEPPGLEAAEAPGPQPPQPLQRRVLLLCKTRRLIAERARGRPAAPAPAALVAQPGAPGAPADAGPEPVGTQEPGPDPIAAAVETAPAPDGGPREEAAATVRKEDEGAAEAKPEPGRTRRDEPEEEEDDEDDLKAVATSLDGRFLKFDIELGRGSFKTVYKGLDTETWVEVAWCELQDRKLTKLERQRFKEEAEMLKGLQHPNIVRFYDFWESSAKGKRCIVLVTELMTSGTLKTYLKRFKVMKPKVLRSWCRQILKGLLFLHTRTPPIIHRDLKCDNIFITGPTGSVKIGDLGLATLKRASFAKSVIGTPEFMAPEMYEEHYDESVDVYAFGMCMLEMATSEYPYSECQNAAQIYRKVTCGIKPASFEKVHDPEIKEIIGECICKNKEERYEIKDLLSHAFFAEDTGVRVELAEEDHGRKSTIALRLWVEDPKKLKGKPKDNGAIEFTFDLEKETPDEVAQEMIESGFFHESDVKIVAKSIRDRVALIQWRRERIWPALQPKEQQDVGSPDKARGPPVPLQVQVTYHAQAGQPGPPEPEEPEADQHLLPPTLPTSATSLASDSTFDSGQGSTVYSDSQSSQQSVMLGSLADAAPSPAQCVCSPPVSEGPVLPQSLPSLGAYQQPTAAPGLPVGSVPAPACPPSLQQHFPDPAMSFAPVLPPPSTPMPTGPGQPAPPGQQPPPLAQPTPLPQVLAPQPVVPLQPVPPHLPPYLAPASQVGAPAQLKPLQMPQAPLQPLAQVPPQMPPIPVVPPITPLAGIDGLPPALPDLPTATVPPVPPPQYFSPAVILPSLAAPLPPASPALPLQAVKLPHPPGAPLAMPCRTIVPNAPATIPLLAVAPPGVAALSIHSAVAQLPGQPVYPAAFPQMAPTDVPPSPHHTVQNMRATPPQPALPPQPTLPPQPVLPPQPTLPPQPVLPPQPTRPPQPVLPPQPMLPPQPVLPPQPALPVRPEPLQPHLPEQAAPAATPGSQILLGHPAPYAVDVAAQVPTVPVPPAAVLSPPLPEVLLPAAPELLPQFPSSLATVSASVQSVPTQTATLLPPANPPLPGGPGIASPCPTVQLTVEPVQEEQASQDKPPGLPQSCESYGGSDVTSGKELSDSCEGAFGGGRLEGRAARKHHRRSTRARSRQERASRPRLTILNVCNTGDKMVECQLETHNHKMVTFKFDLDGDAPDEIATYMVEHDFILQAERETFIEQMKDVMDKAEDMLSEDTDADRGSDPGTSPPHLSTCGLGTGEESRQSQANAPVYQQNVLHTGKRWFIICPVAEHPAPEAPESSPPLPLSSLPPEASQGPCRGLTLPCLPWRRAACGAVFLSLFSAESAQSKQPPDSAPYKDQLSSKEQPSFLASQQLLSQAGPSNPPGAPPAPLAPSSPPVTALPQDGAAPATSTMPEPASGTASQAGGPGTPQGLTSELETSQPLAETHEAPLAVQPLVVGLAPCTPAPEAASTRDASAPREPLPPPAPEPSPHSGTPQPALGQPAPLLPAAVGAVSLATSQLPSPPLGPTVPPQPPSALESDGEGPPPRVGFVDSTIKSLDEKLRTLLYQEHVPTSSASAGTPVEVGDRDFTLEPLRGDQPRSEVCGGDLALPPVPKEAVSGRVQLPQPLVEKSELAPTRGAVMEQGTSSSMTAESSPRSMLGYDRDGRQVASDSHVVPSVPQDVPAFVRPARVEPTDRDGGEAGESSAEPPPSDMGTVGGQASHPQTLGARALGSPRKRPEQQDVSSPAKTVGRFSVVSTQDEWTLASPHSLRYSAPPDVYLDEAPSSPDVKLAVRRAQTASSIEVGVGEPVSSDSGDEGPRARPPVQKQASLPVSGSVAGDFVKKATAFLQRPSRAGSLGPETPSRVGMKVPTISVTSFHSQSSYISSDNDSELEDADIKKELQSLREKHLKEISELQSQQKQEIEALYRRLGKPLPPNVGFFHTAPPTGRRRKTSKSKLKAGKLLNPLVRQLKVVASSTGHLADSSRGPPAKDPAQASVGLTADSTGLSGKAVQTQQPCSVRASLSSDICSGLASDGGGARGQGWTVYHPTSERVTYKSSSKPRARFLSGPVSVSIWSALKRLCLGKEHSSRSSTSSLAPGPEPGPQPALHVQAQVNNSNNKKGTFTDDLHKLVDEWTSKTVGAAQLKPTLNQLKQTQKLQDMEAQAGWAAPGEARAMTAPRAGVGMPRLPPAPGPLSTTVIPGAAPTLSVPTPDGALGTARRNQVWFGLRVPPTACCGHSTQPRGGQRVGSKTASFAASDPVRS
Sequence of Ephrin type-A receptor 2 (Homo sapiens) (P29317 whole entry): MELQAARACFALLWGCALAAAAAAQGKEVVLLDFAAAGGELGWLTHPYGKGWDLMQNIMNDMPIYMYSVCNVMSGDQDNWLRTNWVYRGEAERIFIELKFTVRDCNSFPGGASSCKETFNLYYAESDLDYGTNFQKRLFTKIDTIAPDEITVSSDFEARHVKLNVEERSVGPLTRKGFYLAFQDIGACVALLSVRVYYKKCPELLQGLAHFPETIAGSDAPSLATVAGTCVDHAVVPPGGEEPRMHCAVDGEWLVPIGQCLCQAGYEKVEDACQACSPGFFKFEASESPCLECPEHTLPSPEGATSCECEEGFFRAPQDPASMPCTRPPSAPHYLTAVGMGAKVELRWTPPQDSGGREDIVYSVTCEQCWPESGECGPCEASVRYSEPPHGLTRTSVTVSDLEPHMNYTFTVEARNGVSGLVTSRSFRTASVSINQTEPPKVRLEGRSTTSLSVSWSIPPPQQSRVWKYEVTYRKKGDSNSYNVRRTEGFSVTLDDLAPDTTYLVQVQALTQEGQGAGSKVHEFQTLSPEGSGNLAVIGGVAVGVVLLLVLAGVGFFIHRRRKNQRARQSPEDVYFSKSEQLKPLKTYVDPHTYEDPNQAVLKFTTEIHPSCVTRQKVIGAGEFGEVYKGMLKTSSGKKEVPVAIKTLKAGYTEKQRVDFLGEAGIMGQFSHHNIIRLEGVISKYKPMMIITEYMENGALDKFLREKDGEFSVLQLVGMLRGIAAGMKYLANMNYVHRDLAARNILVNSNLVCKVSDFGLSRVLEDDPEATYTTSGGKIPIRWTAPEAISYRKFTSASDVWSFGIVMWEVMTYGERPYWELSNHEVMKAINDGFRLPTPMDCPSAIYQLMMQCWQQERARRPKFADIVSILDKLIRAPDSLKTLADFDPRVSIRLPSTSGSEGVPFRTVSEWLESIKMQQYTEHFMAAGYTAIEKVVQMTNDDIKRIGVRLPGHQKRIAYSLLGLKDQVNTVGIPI
Sequence of Serine/threonine-protein kinase PLK1 (Homo sapiens) (P53350 whole entry): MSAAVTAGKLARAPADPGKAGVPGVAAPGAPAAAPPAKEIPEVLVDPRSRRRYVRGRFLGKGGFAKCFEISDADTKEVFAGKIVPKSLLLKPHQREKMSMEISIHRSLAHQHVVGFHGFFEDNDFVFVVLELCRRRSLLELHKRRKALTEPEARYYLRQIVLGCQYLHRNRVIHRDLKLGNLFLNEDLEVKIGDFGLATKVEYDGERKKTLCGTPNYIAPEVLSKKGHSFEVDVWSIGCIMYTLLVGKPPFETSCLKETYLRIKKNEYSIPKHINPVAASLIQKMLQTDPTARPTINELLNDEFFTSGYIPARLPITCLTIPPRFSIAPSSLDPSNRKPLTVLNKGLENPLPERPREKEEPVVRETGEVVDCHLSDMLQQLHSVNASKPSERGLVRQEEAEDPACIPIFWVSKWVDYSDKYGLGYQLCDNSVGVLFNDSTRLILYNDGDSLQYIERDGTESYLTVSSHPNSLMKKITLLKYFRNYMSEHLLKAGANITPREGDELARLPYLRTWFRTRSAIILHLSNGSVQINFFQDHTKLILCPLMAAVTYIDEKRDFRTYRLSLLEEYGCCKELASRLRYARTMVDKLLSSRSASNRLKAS
Sequence of Serine/threonine-protein kinase PAK 2 (Homo sapiens) (Q13177 whole entry): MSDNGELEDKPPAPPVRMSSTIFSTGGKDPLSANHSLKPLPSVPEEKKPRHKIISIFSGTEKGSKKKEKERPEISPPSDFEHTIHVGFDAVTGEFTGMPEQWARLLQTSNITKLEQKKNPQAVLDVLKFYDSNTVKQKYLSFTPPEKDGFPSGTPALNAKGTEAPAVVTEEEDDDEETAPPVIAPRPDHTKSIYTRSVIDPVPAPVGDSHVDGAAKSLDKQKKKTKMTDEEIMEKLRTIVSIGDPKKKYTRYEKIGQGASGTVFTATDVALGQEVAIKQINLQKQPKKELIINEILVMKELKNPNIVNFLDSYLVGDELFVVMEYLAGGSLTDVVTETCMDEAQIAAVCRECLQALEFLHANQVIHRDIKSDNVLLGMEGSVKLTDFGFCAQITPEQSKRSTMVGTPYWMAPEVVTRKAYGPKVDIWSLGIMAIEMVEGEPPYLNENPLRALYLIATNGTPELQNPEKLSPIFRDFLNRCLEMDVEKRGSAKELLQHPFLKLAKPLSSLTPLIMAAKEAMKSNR

residual activity [1]: 116%
residual activity [2]: 101%
residual activity [3]: 109%
residual activity [4]: 110%
residual activity [5]: 119%
residual activity [6]: 103%
residual activity [7]: 89%
residual activity [8]: 114%
residual activity [9]: 108%
residual activity [10]: 103%
residual activity [11]: 102%
residual activity [12]: 94%
residual activity [13]: 111%
residual activity [14]: 108%
residual activity [15]: 90%
residual activity [16]: 102%
residual activity [17]: 109%
residual activity [18]: 114%
residual activity [19]: 102%
residual activity [20]: 99%
residual activity [21]: 109%
residual activity [22]: 109%
residual activity [23]: 91%
residual activity [24]: 112%
SMILES: S=c1[nH]nc(-c2ccncc2)n1-c1ccc2ccccc2c1
